Source: patent US20240132522A1, “HETEROCYCLIC COMPOUNDS AND METHODS OF USE THEREOF” (1cBio, Inc., priority 2022, published 2024)
Where a name gives a salt, the structure may show the parent alone.

Legend:
recombinant human PARP1 = recombinant human PARP1 (Homo sapiens, UniProt P09874); test: PARP1 fluorescence polarization binding assay; details: binding IC50, GST-tagged PARP1 20 nM, PARPi-FL probe 3 nM, 4 h at RT
Experimental: In some embodiments, the biological assay is described in the Examples herein. In some embodiments, the biological assay measures PARP-1 binding by way of fluorescence polarization measurements. In some embodiments, binding of a test compound to recombinant human PARP-1 reduces the amount of binding of a fluorescent probe, and consequently reduces the detected level of fluorescence polarization. In some test compound stock solutions are prepared in a solvent, e.g., DMSO, and are serially diluted into a range of concentrations, e.g., 15 concentrations, 14 concentrations, 13 concentrations, 12 concentrations, 11 concentrations, 10 concentrations, 9 concentrations, 8 concentrations, 7 concentrations, 6 concentrations, or 5 concentrations, by a dilution factor, e.g., a 10-fold dilution factor, a 9-fold dilution factor, an 8-fold dilution factor, a 7-fold dilution factor, a 6-fold dilution factor, a 5-fold dilution factor, a 4-fold dilution factor, a 3-fold dilution factor, or a 2-fold dilution factor. In some embodiments, the serial dilutions, e.g., 100 nL of serial dilution, 90 nL of serial dilution, 80 nL of serial dilution, 70 nL of serial dilution, 60 nL of serial dilution, 50 nL of serial dilution, 30 nL of serial dilution, 20 nL of serial dilution, or 10 nL of serial dilution, are added to a multi-welled plate, e.g., a 1536-well plate, a 384-well plate, or a 96-well plate. In some embodiments, PARP-1, e.g., GST-tagged PARP-1, is diluted in assay buffer, e.g., 50 μL of assay buffer, 40 μL of assay buffer, e.g., 30 μL of assay buffer, 20 μL of assay buffer, 10 μL of assay buffer, or 5 μL of assay buffer, and is added to the plate. In some embodiments, the plate is centrifuged, e.g., at 1000 rpm for 1 min, and incubated, e.g., incubated for 30 minutes at room temperature (RT). In some embodiments, a fluorescent probe, e.g., 10 μL of 6 nM PARPi-FL (TOCRIS, Cat #6461), is diluted in an assay buffer and is added to the plate. In some embodiments, the final concentrations of PARP-1 and fluorescent probe are 20 nM and 3 nM, respectively, in a total volume of 20 μL. In some embodiments, the plate is centrifuged, e.g., at 1000 rpm for 1 minute, and the assay plate is incubated, e.g., for 4 h at RT. In some embodiments, the samples in each well are read using a plate reader, e.g., an Envision instrument using excitation=480 nm, and emission wavelength=FITC FP-P pol 535 nm & FITC FP-S pol 535 nm). In some embodiments, percent inhibition is calculated from mP values using Inhibition (%)=[1−(mPc−mPL)/(mPH−mPL)]×100%, where mPc, mPL, and mPH are the mP values of test compound, Low controls, and High controls, respectively. In some embodiments, binding IC50 values are calculated using XLFit (equation 201: y=A+((B−A)/(1+((x/C)^D))), where A=bottom, B=top, C=IC50, and D=slope) with a floating top and bottom for curves.
Compounds of the present disclosure were tested in a PARP1 fluorescence polarization binding assay at Pharmaron (Beijing, P.R. China). In this biochemical assay, binding of test compound to recombinant human PARP1 reduces the amount of binding of a fluorescent probe, and consequently reduces the detected level of fluorescence polarization. Test compound stock solutions were prepared in DMSO and then serially diluted into 10 concentrations by 3-fold dilution in a 384-well plate using a TECAN EVO200. 60 nL of each dilution was transferred to the plate using an Echo550 (Labcyte), and then 10 μL 40 nM GST-tagged PARP1 (BPS Bioscience, Cat #80501), diluted in assay buffer (50 mM Tris pH 8.0, 0.001% Triton X-100, 10 mM MgCl2, 150 mM NaCl), was added to the plate. After a centrifugation at 1000 rpm for 1 min, the assay plate was incubated for 30 min at RT. 10 μL 6 nM PARPi-FL (TOCRIS, Cat #6461), diluted using assay buffer, was then added to the plate. The final concentrations of PARP1 and PARPi-FL were 20 nM and 3 nM, respectively, in a total volume of 20 μL. […]

[1] = tested on: DLD-1 BRCA2(−/−) colorectal adenocarcinoma cells; test: Cell viability assay (Cell Titer-Glo), DLD-1 BRCA2(−/−); assay type: cell-based; details: Homo sapiens, DLD-1, 168 h, 7 days, 200 cells/well
Excerpt: (§1) In some embodiments, the biological assay measures the effects that compounds of the present disclosure may have on the viability of cells, e.g., the viability of cancer cells. In some embodiments, DLD-1 wild-type and DLD-1 BRCA2(−/−) colorectal adenocarcinoma cells, an isogenic pair of cell lines differing in the presence and absence, respectively, of both BRCA2 alleles, are used to measure the effect of the disclosed compounds on the viability of cancer cells.
(§2) In some embodiments, the cells are harvested during the logarithmic growth period, counted, and seeded at a specified count in the wells of a 96- or 384-well cell culture plate. In some embodiments, after seeding, the cells are incubated, e.g., at 37° C., 5% CO2 overnight. In some embodiments, the cells are treated with compounds, e.g., with serially diluted test compounds at 8-11 concentrations within a desired concentration range, e.g., from 1 nM-10 μM, for the generation of dose-response curves. In some embodiments, the plate is further incubated, e.g., for another 3-7 days in a humidified incubator at 37° C. and 5% CO2. In some embodiments, cell viability is assessed by luminescence measurement after addition of Cell Titer-Glo reagent (Promega, Madison, Wis.) according to the manufacturer's instructions. In some embodiments, cell viability IC50 values are calculated using XLFit, equation 201: y=A+((B−A)/(1+((x/C)^D))), where A=bottom, B=top, C=IC50, and D=slope. In some embodiments, the effects of the test compounds on the viability of other cell lines such as MDA-MB-436, MDA-MB-231, SUM149PT, HCC1395, and UWB1.289 are determined in an analogous method.
(§3) Compounds of the present disclosure were tested for their effects on the viability of cancer cells. DLD-1 wild-type and DLD-1 BRCA2(−/−) colorectal adenocarcinoma cells, an isogenic pair of cell lines differing in the presence and absence, respectively, of both BRCA2 alleles, were used. The cells were harvested during the logarithmic growth period, counted, and seeded at 50 cells/well for DLD-1 wild-type and 200 cells/well for DLD-1 BRCA2(−/−) in a 384-well cell culture plate. After seeding, cells were incubated at 37° C., 5% CO2 overnight. Cells were treated with serially diluted test compounds at 10 concentrations from 1.5 nM-30 μM) for generation of dose response curves. The plate was further incubated for another 7 days in a humidified incubator at 37° C. and 5% CO2. Cell viability was assessed by luminescence measurement after addition of Cell Titer-Glo reagent (Promega, Madison, Wis.) according to the manufacturer's instructions. Cell viability IC50 values were calculated using XLFit, equation 201: y=A+((B−A)/(1+((x/C)^D))), where A=bottom, B=top, C=IC50, and D=slope. IC50 values are shown in Table B and are presented in ranges, in which “+++”<300 nM, 300 nM≤“++”<3000 nM, and “+”≥3000 nM. Effects of the test compounds on the viability of other cell lines such as MDA-MB-436, MDA-MB-231, SUM149PT, HCC1395, and UWB1.289 are determined in an analogous method.

[2] = tested on: DLD-1 wild-type colorectal adenocarcinoma cells; test: Cell viability assay (Cell Titer-Glo), DLD-1 wild-type; assay type: cell-based; details: Homo sapiens, DLD-1, 168 h, 7 days, 50 cells/well
Excerpt: as §1, §2, §3

recombinant human PARP1, sequence (P09874 whole entry): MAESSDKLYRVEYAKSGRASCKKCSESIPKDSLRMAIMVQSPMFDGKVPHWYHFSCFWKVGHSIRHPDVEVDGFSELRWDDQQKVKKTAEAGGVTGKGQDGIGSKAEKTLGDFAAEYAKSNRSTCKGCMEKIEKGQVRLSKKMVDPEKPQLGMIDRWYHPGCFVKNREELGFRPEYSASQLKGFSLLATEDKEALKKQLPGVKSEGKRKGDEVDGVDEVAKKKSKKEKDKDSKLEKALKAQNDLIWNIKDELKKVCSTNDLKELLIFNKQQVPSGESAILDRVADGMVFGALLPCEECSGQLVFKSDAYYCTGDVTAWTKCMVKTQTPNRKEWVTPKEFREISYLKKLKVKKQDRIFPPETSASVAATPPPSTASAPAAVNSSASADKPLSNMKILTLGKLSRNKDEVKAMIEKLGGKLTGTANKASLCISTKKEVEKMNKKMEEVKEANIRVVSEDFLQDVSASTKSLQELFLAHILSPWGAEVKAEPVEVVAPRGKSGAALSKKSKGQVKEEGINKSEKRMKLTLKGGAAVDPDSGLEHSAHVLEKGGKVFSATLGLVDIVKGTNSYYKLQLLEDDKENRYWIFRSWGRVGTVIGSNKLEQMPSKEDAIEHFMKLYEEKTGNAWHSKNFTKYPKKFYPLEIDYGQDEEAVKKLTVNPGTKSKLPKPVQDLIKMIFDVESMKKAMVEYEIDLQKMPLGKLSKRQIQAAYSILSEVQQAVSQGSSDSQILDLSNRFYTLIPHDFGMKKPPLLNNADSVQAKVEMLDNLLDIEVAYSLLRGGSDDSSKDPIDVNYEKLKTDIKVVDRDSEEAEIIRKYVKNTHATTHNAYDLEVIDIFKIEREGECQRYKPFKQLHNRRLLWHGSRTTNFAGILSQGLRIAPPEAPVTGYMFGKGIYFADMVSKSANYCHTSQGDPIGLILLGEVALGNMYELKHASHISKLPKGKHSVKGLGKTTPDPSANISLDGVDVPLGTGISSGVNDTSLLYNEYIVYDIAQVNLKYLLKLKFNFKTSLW

| SMILES | IC50 (recombinant human PARP1) [µM] | IC50 [1] [µM] | IC50 [2] [µM] |
| --- | --- | --- | --- |
| CCc1cc2ncc(CN3C4CCC3CN(c3ccc(C(=O)NC)nc3)C4)cc2[nH]c1=O [Compound No. 3, 5-(8-((7-ethyl-6-oxo-5,6-dihydro-1,5-naphthyridin-3-yl)methyl)-3,8-diazabicyclo[3.2.1]octan-3-yl)-N-methylpicolinamide] | < 0.1 | 0.3 to 3 | ≥ 3 |
| CCc1cc2ncc(CN3CC4(C3)CN(C(=O)c3ccc(F)cc3F)C4)cc2[nH]c1=O [Compound No. 181, 7-({6-[(2,4-difluorophenyl)carbonyl]-2,6-diazaspiro[3.3]heptan-2-yl}methyl)-3-ethyl-1H-1,5-naphthyridin-2-one formate] | ≥ 3 | ≥ 3 | ≥ 3 |
| CCc1cc2ncc(CN3CC4CCC(C3)N4c3ccc(C(=O)NC)nc3)cc2[nH]c1=O [Compound No. 8, 5-(3-((7-ethyl-6-oxo-5,6-dihydro-1,5-naphthyridin-3-yl)methyl)-3,8-diazabicyclo[3.2.1]octan-8-yl)-N-methylpicolinamide] | 0.1 to 3 | ≥ 3 | ≥ 3 |
| CCc1cc2ncc(CN3CC4(C3)CN(c3ccc(C(=O)NC)nc3C)C4)cc2[nH]c1=O [Compound No. 139, 5-(6-((7-ethyl-6-oxo-5,6-dihydro-1,5-naphthyridin-3-yl)methyl)-2,6-diazaspiro[3.3]heptan-2-yl)-N,6-dimethylpicolinamide formate] | 0.1 to 3 | ≥ 3 | ≥ 3 |
